According to ChEMBL document CHEMBL3352768, “Synthesis and PGE₂ production inhibition of s-triazine derivatives as a novel scaffold in RAW 264.7 macrophage cells” (Bioorg Med Chem Lett, 2014):

How the values were obtained:
[1] = system: RAW264.7; assay: Inhibition of PGE2 production in LPS-induced mouse RAW264.7 cells at 10 uM; format: functional
[2] = system: RAW264.7; assay: Cytotoxicity against mouse RAW264.7 cells assessed as reduction in cell viability by MTT assay; format: cell-based
[3] = system: RAW264.7; assay: Inhibition of PGE2 production in LPS-induced mouse RAW264.7 cells at 1 uM; format: functional
[4] = molecular target: T1, Prostaglandin G/H synthase 2 (Homo sapiens, UniProt P35354); assay: Inhibition of human recombinant COX2 in cell-free system by enzyme immunoassay
T1 sequence (P35354 whole entry): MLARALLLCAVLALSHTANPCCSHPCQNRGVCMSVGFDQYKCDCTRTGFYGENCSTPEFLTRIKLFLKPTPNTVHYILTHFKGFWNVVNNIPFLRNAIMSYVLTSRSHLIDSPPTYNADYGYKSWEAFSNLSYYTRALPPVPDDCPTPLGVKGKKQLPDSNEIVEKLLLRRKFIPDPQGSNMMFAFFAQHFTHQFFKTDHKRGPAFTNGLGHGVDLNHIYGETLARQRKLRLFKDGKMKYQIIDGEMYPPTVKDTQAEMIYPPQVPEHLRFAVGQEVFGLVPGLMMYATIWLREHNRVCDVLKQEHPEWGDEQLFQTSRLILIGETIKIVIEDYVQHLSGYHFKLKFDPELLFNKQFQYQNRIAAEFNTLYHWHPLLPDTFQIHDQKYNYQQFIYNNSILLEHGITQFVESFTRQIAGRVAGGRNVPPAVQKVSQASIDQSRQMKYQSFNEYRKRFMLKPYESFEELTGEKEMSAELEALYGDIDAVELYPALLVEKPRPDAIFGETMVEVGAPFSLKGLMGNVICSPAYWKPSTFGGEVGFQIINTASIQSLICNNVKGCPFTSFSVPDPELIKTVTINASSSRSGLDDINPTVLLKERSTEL

[5] = system: RAW264.7; assay: Inhibition of PGE2 production in LPS-induced mouse RAW264.7 cells; format: functional, cell-based
[6] = molecular target: T2, Prostaglandin G/H synthase 2 (Homo sapiens) (UniProt P35354); assay: Inhibition of human recombinant COX2 in cell-free system at 10 uM by enzyme immunoassay
T2 sequence (whole entry): T1 sequence (P35354 whole entry)

[7] = system: RAW264.7; assay: Inhibition of PGE2 production in LPS-induced mouse RAW264.7 cells at 3 uM; format: functional

Structure (SMILES)	inhibition at 10 µM [1] [%]	Activity [2] [µM]	also measured
CCOC(=O)C(Sc1nc(Cl)nc(Nc2ccc(-c3ccccc3)cc2)n1)c1cccc2ccccc12 (stereo not given)	78.6	> 10	
COC(=O)C(Sc1nc(C)nc(Nc2ccc(C(C)C)cc2)n1)c1ccccc1 (stereo not given)	85.7	> 10	
O=C(O)C(Sc1nc(Cl)nc(Nc2ccc(-c3ccccc3)cc2)n1)c1cccc2ccccc12 (stereo not given)	7.77	> 10	
COC(=O)C(Sc1nc(Cl)nc(Nc2ccc(Oc3ccccc3)cc2)n1)c1ccccc1 (stereo not given)	85.8	> 10	
COC(=O)C(Sc1nc(Cl)nc(Nc2ccc(Oc3ccccc3)cc2)n1)c1cccc2ccccc12 (stereo not given)	72.5	> 10	
Cc1nc(Nc2ccc(C(C)C)cc2)nc(SC(C(N)=O)c2ccccc2)n1 (stereo not given)		< 10	inhibition at 1 µM [3]: 26.5%
CC(C)c1ccc2c(c1)c(SC(C)(C)C)c(CC(C)(C)C(=O)O)n2Cc1ccc(Cl)cc1			IC50 [4]: 58 µM
COC(=O)C(Sc1nc(Cl)nc(Nc2ccc(C(C)C)cc2)n1)c1cccc2ccccc12 (stereo not given)	88.7	> 10	
COC(=O)C(Sc1nc(Cl)nc(Nc2ccc(-c3ccccc3)cc2)n1)c1ccccc1 (stereo not given)	82.7	> 10	
CCOC(=O)C(Sc1nc(Cl)nc(Nc2ccc(C3CCCCC3)cc2)n1)c1cccc2ccccc12 (stereo not given)	43.7	> 10	
COC(=O)C(Sc1nc(Cl)nc(Nc2ccc(C(C)C)cc2)n1)c1ccccc1 (stereo not given)	91.8	> 10	IC50 [5]: 5.76 µM; inhibition [6]: 31.8%
CS(=O)(=O)Nc1ccc([N+](=O)[O-])cc1OC1CCCCC1 [NS-398]			inhibition at 3 µM [7]: 99.4%
COC(=O)C(Sc1nc(Cl)nc(Nc2ccc(Cc3ccccc3)cc2)n1)c1ccccc1 (stereo not given)	90.8	> 10	IC50 [5]: 5.52 µM; inhibition [6]: 0%
CCOC(=O)C(Sc1nc(Cl)nc(Nc2ccc(Cc3ccccc3)cc2)n1)c1cccc2ccccc12 (stereo not given)	72.6	> 10	
